# Measurements as given in patent US11970454B1, “Ethyl-2[9-2(2-hydroxyquinolin-3-yl)-1,8-dioxo-3,4,9,10-tetrahydroacridine-10-yl]-acetate as an antimicrobial compound” (KING FAISAL UNIVERSITY, priority 2023, dated 2024).
# Legend:
# Escherichia coli = assay: Antimicrobial screening by agar dilution, Escherichia coli; type: cell-based; conditions: after 10, 20, 40 and 60 minutes at all dilutions 1:100, 1:200, 1:400, 1:800
# Method: (§1) The antibacterial properties of the synthesized compound ethyl 2-[9-(2-hydroxyquinolin-3-yl)-1,8-dioxo-3,4,9,10-tetrahydroacridine-10-yl]-acetate were studied by the method of agar dilution. Test solutions of each compound was prepared in concentration of 1% using dimethylformamide as a solvent then they are diluted in physiological solution to obtain the final experimental dilutions 1:100, 1:200, 1:400, 1:800. The effect of these substances are compared with furacillin in a controllable study. The testing microbes used were gram positive bacteria Staphylococcus aureus, gram negative bacteria Pseudomonas aeruginosa and Escherichia coli and Candida albicans fungus. The experiments used for this survey were meat-pentonlu agar (EPA) for cultivation of bacteria and Saburo environment for the fungus. Each experiment used 1 mL of test solution on each plate […]. Two drops of emulsified with microbes feel were added. All experimental samples were taken from the agar after 10, 20, 40, 60 minutes in the environment on the basis of Patrk planted. The bacteria were cultivated at a temperature of 37° C. for 1 day and the mushroom was kept in a thermostat for […] at a temperature of 28° C. Then results were checked.
# Candida albicans = assay: Antimicrobial (antifungal) screening by agar dilution, Candida albicans; type: cell-based; conditions: after 10, 20, 40 and 60 minutes at all dilutions 1:100, 1:200, 1:400, 1:800
# Method: as §1
# Pseudomonas aeruginosa = assay: Antimicrobial screening by agar dilution, Pseudomonas aeruginosa; type: cell-based; conditions: after 10, 20, 40 and 60 minutes at all dilutions 1:100, 1:200, 1:400, 1:800
# Method: as §1
# Staphylococcus aureus = assay: Antimicrobial screening by agar dilution, Staphylococcus aureus; type: cell-based; conditions: after 10, 20, 40 and 60 minutes at all dilutions 1:100, 1:200, 1:400, 1:800
# Method: as §1
smiles,measurement,setting,value
"CCOC(=O)CN1C2=C(C(=O)CCC2)C(c2cc3ccccc3nc2O)C2=C1CCCC2=O [ethyl 2-[9-(2-hydroxyquinolin-3-yl)-1,8-dioxo-3,4,9,10-tetrahydroacridine-10-yl]-acetate]",inhibition activity,Escherichia coli,highest inhibition activity
same,melting point,,228 °C
same,inhibition activity,Candida albicans,highest inhibition activity
same,inhibition activity,Pseudomonas aeruginosa,highest inhibition activity
same,inhibition activity,Staphylococcus aureus,highest inhibition activity
